Test results as given in patent US20210023089A1, “Compositions Useful for Treating Herpes Simplex Keratitis, and Methods Using Same” (priority 2013, published 2021).

Key:
Type in all cases: cell-based
HSV-1 = test: Time-of-addition of KU-55933 in HSV-1 infected hTCEpi cells (Western blot gC, qRT-PCR genome); conditions: MOI 1, KU-55933 10 μM, read at 8 hpi
Method: Standard protocol was followed for Western blot analysis. Cell lysates were collected in Laemmli buffer, vortexed, and boiled at 95° C. for 5 min. Protein concentrations were measured by reducing agent-compatible BCA assay. SDS-PAGE was followed by transfer onto a PVDF membrane, which was then blocked in 5% BSA. Primary antibody staining was performed overnight and blots were visualized on film or with the Odyssey near-infrared system (LI-COR, Lincoln, Nebr.). Primary antibodies against the following proteins were used: ICP0 (Virusys Corporation, Taneytown, Md.), ICP4, PML, and nucleolin (Santa Cruz Biotechnology, Santa Cruz, Calif.), ICP8, glycoproteins B and C, ATM and pATM-Ser1981 (Rockland, Gilbertsville, Pa.), Chk2 and pChk2-Thr68 (Cell Signaling, Danvers, Mass.).
Total DNA was isolated from infected cells using the DNeasy Blood & Tissue Kit (QIAGEN, Hilden, Germany). Real time quantitative PCR was performed with SYBR Green (Bio-Rad, Hercules, Calif.). Target primers for UL30 (DNA polymerase catalytic subunit) and reference primers for GAPDH were used to measure genome replication. Primer sequences were provided in Alekseev et al., 2014, Invest. Ophthalm. Vis. Sci. 55:706-715). Real time PCR data were processed using the ΔΔC(t) method.
hTCEpi, EPC2, and OKF6 are normal human epithelial cells from cornea, esophagus, and palate, respectively. […]

[1] = system: dlsptk strain of HSV-1 (TK mutant); test: qPCR of genome replication of drug-resistant HSV-1 in hTCEpi cells
Method: All cells were cultured at 37° C. and 5% CO2 and supplemented with 100 U/mL penicillin and […]. Human corneal epithelial cells immortalized with hTERT (hTCEpi; Robertson, et al., 2005, Invest Ophthalmol Vis Sci. 46:470-478) were grown in complete keratinocyte growth medium 2 (KGM-2; Lonza, Basel, Switzerland). African green monkey kidney fibroblasts (CV-1; American Type Culture Collection, Manassas, Va.) were grown in Dulbecco's modified Eagle's medium (DMEM; Cellgro, Manassas, Va.) supplemented with 10% FBS. The KOS strain of HSV-1 was used in the in vitro and ex vivo infections, whereas McKrae strain was used for in vivo mouse experiments, and TK mutant dlsptk strain (Coen et al., 1989, Proc Natl Acad Sci USA 86:4736-4740) was used in the drug resistance experiments. All viral stocks were titered on CV-1 monolayers.
The following strains of HSV-1 were used: KOS, ICPO-null, HFEM, and tsB7. Subconfluent monolayers of cells were grown in six-well plates. Drug treatments were administered 45 minutes prior to infection and continued for the entire duration of each experiment. Unless indicated otherwise, KU-55933 (Batch No. 5, 99.7% purity; Tocris Bioscience, Bristol, UK) was used at 10 μM final concentration, phosphonoacetic acid (PAA) at 400 μg/mL (Sigma-Aldrich, St. Louis, Mo.), and acyclovir at 50 μg/mL (Sigma-Aldrich). KU-55933 was dissolved in dimethyl sulfoxide (DMSO), and the final concentration of DMSO in both KU-55933 and mock treatment in the in vitro and the ex vivo experiments was 0.1%.
Viral genome replication and transcription were measured by quantitative PCR (qPCR). Total DNA and RNA from infected cells were isolated using the DNeasy Blood & Tissue Kit and the RNeasy Mini Kit, respectively (QIAGEN, Hilden, Germany). RNA was converted to cDNA using qScript (Quanta BioSciences, Gaithersburg, Md.). […] Transcription of the three gene families was measured with primers for RL2 (ICPO), UL30 (DNA polymerase catalytic subunit), and UL44 (gC), with reference primers for the 18S ribosomal RNA (rRNA).

human corneas = system: human corneas
Method: Human corneas were obtained from the Lions Eye Bank of Delaware Valley. Rabbit corneas were excised from intact fresh eyeballs of young (8-12 weeks) albino rabbits (Pel-Freez Biologicals, Rogers, Ark.). Protocol (Alekseev et al., 2012, J Vis Exp 69:e3631) for ex vivo corneal culture, infection, and treatment was followed closely. Briefly, corneoscleral buttons were excised and rinsed in PBS containing 200 U/mL penicillin and 200 μg/mL streptomycin. The endothelial concavity was filled with culture medium containing 1% low melting temperature agarose. The corneas were cultured epithelial side up in MEM medium supplemented with nonessential amino acids (1×), 2 mM […], 200 U/mL penicillin, and 200 μg/mL streptomycin. The next day, they were infected with 1×10^4 plaque forming units (PFU)/cornea of strain KOS HSV-1 for 1 hour, rinsed, and overlaid with fresh medium. Drug treatments were administered at the same concentrations as for cultured cells. For KU-55933 bioavailability assessment, corneas were treated with bleomycin (200 μg/mL) for 1 hour. The epithelial cell layer was collected by scraping to isolate DNA or protein. […] Treatment toxicity was assessed by briefly staining the cornea with fluorescein (1% wt/vol in PBS) and imaging the epithelial defects with 464-nm wavelength blue light (LDP LLC, Carlstadt, N.J.).

Structure (SMILES): O=c1cc(-c2cccc3c2Sc2ccccc2S3)oc(N2CCOCC2)c1 [KU-55933, 2-(morpholin-4-yl)-6-(thianthren-1-yl)-pyran-4-one]
- viral replication, treatment administered at 1 hpi and later (HSV-1): significantly less effect
- viral replication, treatment started prior to the 1 hpi timepoint (HSV-1): notable reduction
- genome replication of dlsptk strain (qPCR) ([1]; MOI 0.1, 16 hpi, KU-55933 10 μM, acyclovir 50 μg/mL): markedly suppress
- inhibitory effect on dlsptk infection compared with KOS infection ([1]; MOI 0.1, KU-55933 10 μM, 16 hpi): as potent as its effect on KOS infection
- surface defects of explanted human corneas (human corneas): did not develop any surface defects
